Values quoted from earlier work in patent publication EP1179349B1, “W/O emulsion adjuvant compositions for vaccines” (Lohmann Animal Health GmbH & Co. KG, priority 2000, dated 2002).

Conditions: manufacturer's data

CCCCCCCCCCCCCC(=O)OC(C)C [Isopropylmyristat]
Toxizität: Keine toxische Wirkung nachweisbar.
